Activity calls are given as the source filed them. The rule behind the calls is not given here.

Among the data in PubChem BioAssay AID1259407 (Chemical Carcinogenesis Research Information System (CCRIS), 2018) are mutagenic call values, retold here.

The subject of this series is CCRIS mutagenicity, Ames/micronucleus/aberration tests. The experiment in a line: CCRIS mutagenicity studies.

Take `Nc1nc2c(ncn2[C@@H]2C=C[C@H](CO)C2)c(=O)[nH]1`: the mutagenic call (Test System: AMES SALMONELLA TYPHIMURIUM, Strain/Indicator: TA98, Metabolic Activation: HAMSTER, LIVER, S-9, AROCLOR 1254 (10%), Method: STANDARD PLATE) was “inactive; negative”; the mutagenic call (Test System: AMES SALMONELLA TYPHIMURIUM, Strain/Indicator: TA98, Metabolic Activation: NONE, Method: STANDARD PLATE) was “inactive; negative”; the mutagenic call (Test System: AMES SALMONELLA TYPHIMURIUM, Strain/Indicator: TA98, Metabolic Activation: RAT, LIVER, S-9, AROCLOR 1254 (10%), Method: STANDARD PLATE) was “inactive; negative”; the mutagenic call (Test System: AMES SALMONELLA TYPHIMURIUM, Strain/Indicator: TA100, Metabolic Activation: HAMSTER, LIVER, S-9, AROCLOR 1254 (10%), Method: STANDARD PLATE) is “inactive; negative”; the mutagenic call (Test System: AMES SALMONELLA TYPHIMURIUM, Strain/Indicator: TA100, Metabolic Activation: NONE, Method: STANDARD PLATE) is “inactive; negative”; the mutagenic call (Test System: AMES SALMONELLA TYPHIMURIUM, Strain/Indicator: TA100, Metabolic Activation: RAT, LIVER, S-9, AROCLOR 1254 (10%), Method: STANDARD PLATE) is “inactive; negative”. The mutagenic call by setting is: (Test System: AMES SALMONELLA TYPHIMURIUM, Strain/Indicator: TA1535, Metabolic Activation: HAMSTER, LIVER, S-9, AROCLOR 1254 (10%), Method: STANDARD PLATE) “inactive; negative”; (Test System: AMES SALMONELLA TYPHIMURIUM, Strain/Indicator: TA1535, Metabolic Activation: NONE, Method: STANDARD PLATE) “inactive; negative”; (Test System: AMES SALMONELLA TYPHIMURIUM, Strain/Indicator: TA1535, Metabolic Activation: RAT, LIVER, S-9, AROCLOR 1254 (10%), Method: STANDARD PLATE) “inactive; negative”; (Test System: AMES SALMONELLA TYPHIMURIUM, Strain/Indicator: TA1537, Metabolic Activation: HAMSTER, LIVER, S-9, AROCLOR 1254 (10%), Method: STANDARD PLATE) “inactive; negative”; (Test System: AMES SALMONELLA TYPHIMURIUM, Strain/Indicator: TA1537, Metabolic Activation: NONE, Method: STANDARD PLATE) “inactive; negative”; (Test System: AMES SALMONELLA TYPHIMURIUM, Strain/Indicator: TA1537, Metabolic Activation: RAT, LIVER, S-9, AROCLOR 1254 (10%), Method: STANDARD PLATE) “inactive; negative”. For the same compound, the mutagenic call runs as follows: (Test System: AMES SALMONELLA TYPHIMURIUM, Strain/Indicator: TA1538, Metabolic Activation: HAMSTER, LIVER, S-9, AROCLOR 1254 (10%), Method: STANDARD PLATE) “inactive; negative”; (Test System: AMES SALMONELLA TYPHIMURIUM, Strain/Indicator: TA1538, Metabolic Activation: NONE, Method: STANDARD PLATE) “inactive; negative”; (Test System: AMES SALMONELLA TYPHIMURIUM, Strain/Indicator: TA1538, Metabolic Activation: RAT, LIVER, S-9, AROCLOR 1254 (10%), Method: STANDARD PLATE) “inactive; negative”; (Test System: MOUSE LYMPHOMA, Strain/Indicator: L5178Y (TK+/TK-), Metabolic Activation: NONE, Method: SUSPENSION/PLATE) “inactive; negative. reevaluation of results: inconclusive”; (Test System: MOUSE LYMPHOMA, Strain/Indicator: L5178Y (TK+/TK-), Metabolic Activation: RAT, LIVER, S-9, AROCLOR 1254, Method: SUSPENSION/PLATE) “active; positive; reevaluation of results: positive”; (Test System: Mouse lymphoma, Strain/Indicator: L5178Y (tk+/tk-), Metabolic Activation: None, Method: Suspension/plate) “inactive; negative”. In addition, the mutagenic call (Test System: Mouse lymphoma, Strain/Indicator: L5178Y (tk+/tk-), Metabolic Activation: Rat, Liver, S-9, Aroclor 1254, Method: Suspension/plate) is “inactive; negative”.

Consider `CCCCC(CC)COC(=O)c1cccc(C(=O)OCC(CC)CCCC)c1` (stereo not given), for which the mutagenic call (Test System: AMES SALMONELLA TYPHIMURIUM, Strain/Indicator: TA97, Metabolic Activation: HAMSTER, LIVER, S-9, AROCLOR 1254 (10 OR 30%), Method: PREINCUBATION) is “inactive; negative”; the mutagenic call (Test System: AMES SALMONELLA TYPHIMURIUM, Strain/Indicator: TA97, Metabolic Activation: NONE, Method: PREINCUBATION) was “inactive; negative”; the mutagenic call (Test System: AMES SALMONELLA TYPHIMURIUM, Strain/Indicator: TA97, Metabolic Activation: RAT, LIVER, S-9, AROCLOR 1254 (10 OR 30%), Method: PREINCUBATION) was “inactive; negative”; the mutagenic call (Test System: AMES SALMONELLA TYPHIMURIUM, Strain/Indicator: TA98, Metabolic Activation: HAMSTER, LIVER, S-9, AROCLOR 1254 (10 OR 30%), Method: PREINCUBATION) was “inactive; negative”; the mutagenic call (Test System: AMES SALMONELLA TYPHIMURIUM, Strain/Indicator: TA98, Metabolic Activation: NONE, Method: PREINCUBATION) was “inactive; negative”; the mutagenic call (Test System: AMES SALMONELLA TYPHIMURIUM, Strain/Indicator: TA98, Metabolic Activation: RAT, LIVER, S-9, AROCLOR 1254 (10 OR 30%), Method: PREINCUBATION) was “inactive; negative”. Besides, the mutagenic call (Test System: AMES SALMONELLA TYPHIMURIUM, Strain/Indicator: TA100, Metabolic Activation: HAMSTER, LIVER, S-9, AROCLOR 1254 (10 OR 30%), Method: PREINCUBATION) was “inactive; negative”; the mutagenic call (Test System: AMES SALMONELLA TYPHIMURIUM, Strain/Indicator: TA100, Metabolic Activation: NONE, Method: PREINCUBATION) was “inactive; negative”; the mutagenic call (Test System: AMES SALMONELLA TYPHIMURIUM, Strain/Indicator: TA100, Metabolic Activation: RAT, LIVER, S-9, AROCLOR 1254 (10 OR 30%), Method: PREINCUBATION) was “inactive; negative”; the mutagenic call (Test System: AMES SALMONELLA TYPHIMURIUM, Strain/Indicator: TA1535, Metabolic Activation: HAMSTER, LIVER, S-9, AROCLOR 1254 (10 OR 30%), Method: PREINCUBATION) was “inactive; negative”; the mutagenic call (Test System: AMES SALMONELLA TYPHIMURIUM, Strain/Indicator: TA1535, Metabolic Activation: NONE, Method: PREINCUBATION) is “inactive; negative”; the mutagenic call (Test System: AMES SALMONELLA TYPHIMURIUM, Strain/Indicator: TA1535, Metabolic Activation: RAT, LIVER, S-9, AROCLOR 1254 (10 OR 30%), Method: PREINCUBATION) was “inactive; negative”.

On to `ICI`, for which the mutagenic call was “inactive; negative” (Test System: AMES SALMONELLA TYPHIMURIUM, Strain/Indicator: TA102, Metabolic Activation: NONE, Method: STANDARD PLATE); “inactive; negative” (Test System: AMES SALMONELLA TYPHIMURIUM, Strain/Indicator: TA2638, Metabolic Activation: NONE, Method: STANDARD PLATE); “inactive; negative” (Test System: E. COLI, Strain/Indicator: WP2 (PKM101), Metabolic Activation: NONE, Method: STANDARD PLATE); “active; positive” (Test System: E. COLI, Strain/Indicator: WP2 UVRA (PKM101), Metabolic Activation: NONE, Method: STANDARD PLATE).
